Assay results reported in the supplement of paper PMC11061612.

Columns and labels:
Venetoclax = compound: CC1(C)CCC(CN2CCN(c3ccc(C(=O)NS(=O)(=O)c4ccc(NCC5CCOCC5)c([N+](=O)[O-])c4)c(Oc4cnc5[nH]ccc5c4)c3)CC2)=C(c2ccc(Cl)cc2)C1 [Venetoclax]; details: max 1 µM
Procedure, shortened: (§1)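 Viability was measured with CellTiter-Glo 2.0 luminescence after 72 hours of dosing at a final DMSO of typically 0.2%, and scaled between blank-well and DMSO-well means. Beforehand, cancer cell lines sat 24 hours at 37°C and 5% CO2 in 1536-well plates in 7.5 μl DMEM/F12 or RPMI with 10% FBS. A non-linear mixed effects model fitted two-parameter logistic curves to the dose responses. The single-agent IC50 comes from these fits.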

Selumetinib = compound: Cn1cnc2c(F)c(Nc3ccc(Br)cc3Cl)c(C(=O)NOCCO)cc21 [Selumetinib]
Procedure, shortened: as §1

Taselisib = compound: Cc1nc(-c2cn3c(n2)-c2ccc(-c4cnn(C(C)(C)C(N)=O)c4)cc2OCC3)n(C(C)C)n1 [Taselisib]; details: max 10 µM
Procedure, shortened: as §1

Trametinib = compound: CC(=O)Nc1cccc(-n2c(=O)n(C3CC3)c(=O)c3c(Nc4ccc(I)cc4F)n(C)c(=O)c(C)c32)c1 [Trametinib]; details: max 1 µM
Procedure, shortened: as §1

Savolitinib = compound: C[C@@H](c1ccc2nccn2c1)n1nnc2ncc(-c3cnn(C)c3)nc21 [Savolitinib]; details: max 1 µM
Procedure, shortened: as §1

Doxorubicin = compound: COc1cccc2c1C(=O)c1c(O)c3c(c(O)c1C2=O)C[C@@](O)(C(=O)CO)C[C@@H]3O[C@H]1C[C@H](N)[C@H](O)[C@H](C)O1 [Doxorubicin]; details: max 1 µM
Procedure, shortened: as §1

Alisertib = compound: COc1cc(Nc2ncc3c(n2)-c2ccc(Cl)cc2C(c2c(F)cccc2OC)=NC3)ccc1C(=O)O [Alisertib]; details: max 10 µM
Procedure, shortened: as §1

AZD1390 = compound: CC(C)n1c(=O)n(C)c2cnc3cc(F)c(-c4ccc(OCCCN5CCCCC5)nc4)cc3c21 [AZD1390]; details: max 0.3 µM
Procedure, shortened: as §1

Gefitinib = compound: COc1cc2ncnc(Nc3ccc(F)c(Cl)c3)c2cc1OCCCN1CCOCC1 [Gefitinib]; details: max 10 µM
Procedure, shortened: as §1

Prexasertib = compound: COc1cccc(OCCCN)c1-c1cc(Nc2cnc(C#N)cn2)n[nH]1 [Prexasertib]; details: max 1 µM
Procedure, shortened: as §1

Lapatinib = compound: CS(=O)(=O)CCNCc1ccc(-c2ccc3ncnc(Nc4ccc(OCc5cccc(F)c5)c(Cl)c4)c3c2)o1 [Lapatinib]; details: max 10 µM
Procedure, shortened: as §1

SN-38 = compound: CCc1c2c(nc3ccc(O)cc13)-c1cc3c(c(=O)n1C2)COC(=O)[C@]3(O)CC [SN-38]; details: max 0.3 µM
Procedure, shortened: as §1

Crizotinib = compound: C[C@@H](Oc1cc(-c2cnn(C3CCNCC3)c2)cnc1N)c1c(Cl)ccc(F)c1Cl [Crizotinib]; details: max 10 µM
Procedure, shortened: as §1

Capivasertib = compound: C1CN(CCC1(C(=O)N[C@@H](CCO)C2=CC=C(C=C2)Cl)N)C3=NC=NC4=C3C=CN4 [Capivasertib]
Procedure, shortened: as §1

Palbociclib = compound: CC(=O)c1c(C)c2cnc(Nc3ccc(N4CCNCC4)cn3)nc2n(C2CCCC2)c1=O [Palbociclib]; details: max 10 µM
Procedure, shortened: as §1

AZD8186 = compound: C[C@@H](Nc1cc(F)cc(F)c1)c1cc(C(=O)N(C)C)cc2c(=O)cc(N3CCOCC3)oc12 [AZD8186]; details: max 3 µM
Procedure, shortened: as §1

AZD0156 = compound: CN(C)CCCOc1ccc(-c2ccc3ncc4c(c3c2)n(C2CCOCC2)c(=O)n4C)cn1 [AZD0156]
Procedure, shortened: as §1

AZD5153 = compound: COc1nnc2ccc(N3CCC(c4ccc(OCCN5CCN(C)C(=O)[C@H]5C)cc4)CC3)nn12 [AZD5153]; details: max 1 µM
Procedure, shortened: as §1

Olaparib = compound: O=C(c1cc(Cc2n[nH]c(=O)c3ccccc23)ccc1F)N1CCN(C(=O)C2CC2)CC1 [Olaparib]; details: max 10 µM
Procedure, shortened: as §1

SG3199 = compound: CC1=CN2[C@@H](C1)C=NC3=CC(=C(C=C3C2=O)OC)OCCCCCOC4=C(C=C5C(=C4)N=C[C@@H]6CC(=CN6C5=O)C)OC [SG3199]; details: max 0.001 µM
Procedure, shortened: as §1

AZD6738 = compound: C[C@@H]1COCCN1C2=NC(=NC(=C2)C3(CC3)[S@](=N)(=O)C)C4=C5C=CNC5=NC=C4 [AZD6738]; details: max 10 µM
Procedure, shortened: as §1

AZD5991 = compound: Cc1c2c(nn1C)CSCc1cc(n(C)n1)CSc1cc(c3ccccc3c1)OCCCc1c(C(=O)O)n(C)c3c-2c(Cl)ccc13 [AZD5991]; details: max 1 µM
Procedure, shortened: as §1

Dasatinib = compound: CC1=C(C(=CC=C1)Cl)NC(=O)C2=CN=C(S2)NC3=CC(=NC(=N3)C)N4CCN(CC4)CCO [Dasatinib]; details: max 2 µM
Procedure, shortened: as §1

AZD2811 = compound: CCN(CCO)CCCOc1ccc2c(Nc3cc(CC(=O)Nc4cccc(F)c4)[nH]n3)ncnc2c1 [AZD2811]; details: max 1 µM
Procedure, shortened: as §1

AZD4320 = compound: CN(CC[C@H](CSC1=CC=CC=C1)NC2=C(C=C(C=C2)S(=O)(=O)NC(=O)C3=CC=C(C=C3)N4CCC(CC4)[C@H](C5=CC=CC=C5C6=CC=C(C=C6)Cl)O)S(=O)(=O)C(F)(F)F)CCO [AZD4320]; details: max 1 µM
Procedure, shortened: as §1

AZD7648 = compound: Cc1cc2ncnn2cc1Nc1ncc2c(n1)n(C1CCOCC1)c(=O)n2C [AZD7648]; details: max 10 µM
Procedure, shortened: as §1

AZD1775 = compound: C=CCn1c(=O)c2cnc(Nc3ccc(N4CCN(C)CC4)cc3)nc2n1-c1cccc(C(C)(C)O)n1 [AZD1775]
Procedure, shortened: as §1

Cell Line | IC50, cell viability 72 h (Venetoclax) [nM] | IC50, cell viability 72 h (Selumetinib; max 10 µM) [nM] | IC50, cell viability 72 h (Taselisib) [nM] | IC50, cell viability 72 h (Trametinib) [nM] | IC50, cell viability 72 h (Savolitinib) [nM] | IC50, cell viability 72 h (Doxorubicin) [nM] | IC50, cell viability 72 h (Alisertib) [nM] | IC50, cell viability 72 h (AZD1390) [nM] | IC50, cell viability 72 h (Gefitinib) [nM] | IC50, cell viability 72 h (Prexasertib) [nM] | IC50, cell viability 72 h (Lapatinib) [nM] | IC50, cell viability 72 h (SN-38) [nM] | IC50, cell viability 72 h (Crizotinib) [nM] | IC50, cell viability 72 h (Capivasertib; max 10 µM) [nM] | IC50, cell viability 72 h (Palbociclib) [nM] | IC50, cell viability 72 h (AZD8186) [nM] | IC50, cell viability 72 h (AZD0156; max 3 µM) [nM] | IC50, cell viability 72 h (AZD5153) [nM] | IC50, cell viability 72 h (Olaparib) [nM] | IC50, cell viability 72 h (SG3199) [nM] | IC50, cell viability 72 h (AZD6738) [nM] | IC50, cell viability 72 h (AZD5991) [nM] | IC50, cell viability 72 h (Dasatinib) [nM] | IC50, cell viability 72 h (AZD2811) [nM] | IC50, cell viability 72 h (AZD4320) [nM] | IC50, cell viability 72 h (AZD7648) [nM] | IC50, cell viability 72 h (AZD1775; max 3 µM) [nM] | IC50, cell viability 72 h (AZD0156; max 1 µM) [nM] | IC50, cell viability 72 h (AZD1775; max 1 µM) [nM] | IC50, cell viability 72 h (Selumetinib; max 3 µM) [nM] | IC50, cell viability 72 h (Capivasertib; max 3 µM) [nM]
NB1 (Neuroblastoma) | > 1000 | > 10000 | 1200 | > 1000 | > 1000 | > 1000 | > 10000 | > 300 | > 10000 | 184 | > 10000 | 24 | 628 | 5180 | > 10000 | > 3000 | > 3000 | > 1000 | > 10000 | > 1 | 4730 | > 1000 | > 2000 | 186 | > 1000 | > 10000 | 1360 |  |  |  | 
NCI-H1341 (Small Cell Lung Carcinoma) | > 1000 | > 10000 | 684 | > 1000 | > 1000 | 587 | 910 | > 300 | > 10000 | 47.1 | > 10000 | 13.8 | > 10000 | 9050 | > 10000 | > 3000 | > 3000 | 739 | > 10000 | > 1 | 6030 | > 1000 | > 2000 | > 1000 | 59.3 | > 10000 | 1240 |  |  |  | 
NCI-H1963 (Small Cell Lung Carcinoma) | 614 | 8820 | 9650 | > 1000 | > 1000 | 830 | 208 | > 300 | > 10000 | 44.3 | > 10000 | 36.7 | 3040 | > 10000 | 6900 | > 3000 |  | 99.3 | > 10000 | > 1 | 2730 | > 1000 | > 2000 | 36.1 | 15.2 | > 10000 |  | > 1000 | 525 |  | 
NCI-H2373 (Mesothelioma) | > 1000 | > 10000 | 3520 | > 1000 | > 1000 | 313 | > 10000 | > 300 | > 10000 | > 1000 | > 10000 | 58.9 | > 10000 | > 10000 | > 10000 | > 3000 | > 3000 | > 1000 | > 10000 | > 1 | > 10000 | > 1000 | > 2000 | > 1000 | > 1000 | > 10000 | > 3000 |  |  |  | 
NMC-G1 (Low Grade Glioma) | > 1000 |  | > 10000 | > 1000 |  | > 1000 | > 10000 |  |  | > 1000 |  | > 300 |  |  |  | > 3000 |  |  | > 10000 | > 1 | > 10000 | > 1000 |  | > 1000 | > 1000 | > 10000 |  | > 1000 | > 1000 | > 3000 | > 3000
OVCAR-3 (Ovarian Carcinoma) | > 1000 | > 10000 | 5630 | > 1000 | > 1000 | > 1000 | > 10000 | > 300 | > 10000 | 198 | > 10000 | 231 | > 10000 | > 10000 | > 10000 | > 3000 | > 3000 | 475 | > 10000 | > 1 | > 10000 | > 1000 | > 2000 | > 1000 | > 1000 | > 10000 | 1600 |  |  |  | 
P30-OHK (B-Lymphoblastic Leukemia) | > 1000 | > 10000 | 6340 | > 1000 | > 1000 | 202 | 231 | > 300 | > 10000 | 20.5 | > 10000 | 9.37 | 2780 | > 10000 | > 10000 | > 3000 | > 3000 | 63.3 | > 10000 | > 1 | 3470 | 835 | > 2000 | 37.9 | 173 | > 10000 | 660 |  |  |  | 
TUR (Acute Myeloid Leukemia) | > 1000 | > 10000 | 1210 | > 1000 | > 1000 | 626 | > 10000 | > 300 | > 10000 | 16.4 | > 10000 | 22.9 | > 10000 | 2860 | > 10000 | > 3000 | > 3000 | > 1000 | > 10000 | > 1 | 3440 |  | > 2000 | > 1000 | > 1000 | > 10000 | 575 |  |  |  | 
